Results taken from paper PMC8268238, “Seleno-Functionalization of Quercetin Improves the Non-Covalent Inhibition of M^pro and Its Antiviral Activity in Cells against SARS-CoV-2” (International Journal of Molecular Sciences, 2021).
pIC50, pKi: −log10 of the molar value. Where two headings read alike, the source gives them in different places.

What was measured:
[1] = tested on: SARS-CoV-2 main protease (M^pro or 3CL^pro); conditions: cited from earlier work
SARS-CoV-2 [2] = tested on: SARS-CoV-2; set-up: method as in PMID 32272481; conditions: cited from earlier work
SARS-CoV-2 M^pro [3] = molecular target: T1, SARS-CoV-2 M^pro (Severe acute respiratory syndrome coronavirus 2, UniProt P0DTD1); test: Reversibility test of M^pro interaction (SEC/dialysis, then activity and near-UV CD); type: biochemical; conditions: M^pro 24 μM incubated with compound 200 μM, 30 min, 25 °C, then SEC or dialysis
SARS-CoV-2 M^pro [4] = molecular target: T1, SARS-CoV-2 M^pro; test: SARS-CoV-2 M^pro inhibition assay (FRET substrate); type: biochemical; conditions: 0.2 μM enzyme, 20 μM substrate, pH 7, DMSO 2.5%
Description: A continuous assay based on Förster resonance energy transfer (FRET) to measure in vitro the catalytic activity of M^pro was implemented by using the substrate (Dabcyl)KTSAVLQSGFRKME(Edans)-NH2 (Biosyntan GmbH, Berlin, Germany) The enzymatic reaction was initiated by adding substrate at 20 μM (final concentration) to the enzyme at 0.2 μM (final concentration) in a final volume of 100 μL. The reaction buffer was sodium phosphate 50 mM, pH 7, NaCl 150 mM, and DMSO 2.5%. Fluorescence emission was measured in a FluoDia T70 microplate reader (Photon Technology International, Birmingham, NJ, USA) for 20 min (excitation wavelength, 380 nm; emission wavelength, 500 nm). The initial slope of the time evolution curve of the fluorescence emission signal provided a direct quantification of the enzymatic activity.
The in vitro inhibition potency of the compounds against M^pro was assessed through the estimation of the inhibition constant, Ki, and the half-maximal inhibitory concentration, IC50, from experimental inhibition curves. Inhibition curves were obtained by measuring the enzyme activity (at fixed 0.2 μM enzyme concentration and fixed 20 μM substrate concentration) as a function of compound concentration (serial 2-fold dilution from 125 µM to 0 μM), maintaining the percentage of DMSO (2.5%) constant. The enzymatic activity was quantitated as the initial slope of the substrate fluorescence emission time evolution curve, and was plotted as a function of compound concentration. The ratio between the activity (slope) in the presence and absence of the compound provides the residual percentage of activity at a given compound concentration. Nonlinear regression analysis employing a simple inhibition model (considering inhibitor depletion due to enzyme binding) allowed us to estimate the apparent inhibition constant, Ki^app, for each compound according to Equation (1):(1) [EI]=1/2([I]T+[E]T+Kiapp−([I]T+[E]T+Kiapp)^2−4[E]T[I]T)[I]=[I]T−[EI]=1/2([I]T−[E]T−Kiapp+([I]T+[E]T+Kiapp)^2−4[E]T[I]T)v([I])/v([I]=0)=1−[EI]/[E]T=1/1+[I]/Kiapp, where [EI] is the concentration of the enzyme–inhibitor complex, [E]T and [I]T are the total concentrations of the enzyme and the inhibitor, Ki^app is the apparent inhibition constant for the inhibitors (quercetin and derivatives), [I] is the concentration of the free inhibitor, and v is the initial slope of the enzymatic activity trace at a given (free) inhibitor concentration [I] (or total inhibitor concentration [I]T). No approximation for the free inhibitor concentration (e.g., assuming to be equal to the total inhibitor concentration) was made, thus having general validity for any total enzyme and inhibitor concentration and any value of the inhibition constant (even for tight-binding inhibitors). In addition, if the inhibitor acts through a purely competitive mechanism, the previous equation can be substituted by Equation (2):(2) v([I])/v([I]=0)=1/1+[I]/Kiapp=1/1+[I]/Ki(1+[S]/Km), where Ki is the intrinsic (i.e., substrate concentration-independent) inhibition constant, Km is the Michaelis–Menten constant for the enzyme–substrate interaction, and [S] is the substrate concentration. Because Km and [S] are known, the intrinsic inhibition constant can be determined. Furthermore, approximating the free compound concentration by the total compound concentration and neglecting ligand depletion, the Ki^app in Equation (2) is equivalent to the IC50, as reported in Table 3. However, it should be emphasized that the IC50 is an assay-dependent inhibition potency index (among other parameters, it depends on the enzyme and substrate concentrations, as well as on the Km); thus, the intrinsic inhibition constant is a better inhibition potency index. Uncertainties have been reported as 95% profile likelihood asymmetric confidence intervals, as especially recommended for equilibrium constants (i.e., binding association/dissociation constants and inhibition constants).

Vero cells = test: XTT cell viability assay; type: cell-based, Cercopithecus aethiops; conditions: quercetin 500–100 µM; 2d 100–10 µM; Figure S2
Description: Cell viability was evaluated using the XTT Cell Viability Assay kit (Biological Industries, Cromwell, CT, USA) according to the manufacturer’s protocol. Vero, A549ACE2+, CRFK, HRT-18, LLC-MK2, and HSF cells were cultured on 96-well plates. Cells were incubated with ACF for 24 h at 37 °C in an atmosphere containing 5% CO2. After incubation, the medium was discarded and 100 µL of fresh medium was added to each well. Then, 25 µL of the activated 2,3-bis-(2-methoxy-4-nitro-5-sulphenyl)-(2H)-tetrazolium-5-carboxanilide (XTT) solution was added and samples were incubated for 2 h at 37 °C. The absorbance (λ = 450 nm) was measured using a Spectra MAX 250 spectrophotometer (Molecular Devices, San Jose, CA, USA). The obtained results were normalized to the control samples, where cell viability was set to 100%.

SARS-CoV-2 [5] = conditions: for Inhibition of the virus-caused cytopathic effect (CPE): 2 days
SARS-CoV-2 [6] = test: Inhibition of SARS-CoV-2 replication in Vero cells by RT-qPCR; type: cell-based

For `C[C@@H]1O[C@@H](OC[C@H]2O[C@@H](Oc3c(-c4ccc(O)c(O)c4)oc4cc(O)cc(O)c4c3=O)[C@H](O)[C@@H](O)[C@@H]2O)[C@H](O)[C@H](O)[C@H]1O` [rutin], the “M^pro inhibition potency relative to quercetin, in words” value [1] is given as “slightly lower potency”.

In the case of `O=c1c2ccccc2[se]n1-c1ccccc1` [ebselen], the “Antiviral activity observed in cell models, in words” value (SARS-CoV-2 [2]) is listed as “low micromolar levels” and the “M^pro half-maximal inhibitory concentration (IC50), in words” value [1] is listed as “nanomolar range”.

In the case of `Cc1ccc([Se]c2c(O)cc(O)c3c(=O)c(O)c(-c4ccc(O)c(O)c4)oc23)cc1` [2d, 2-(3,4-Dihydroxyphenyl)-3,5,7-trihydroxy-8-(p-tolylselanyl)-4H-chromen-4-one], the melting point was 203 to 206 °C, the “reversibility of the interaction with M^pro” value (SARS-CoV-2 M^pro [3]) was “reversible interaction” and the pIC50 (SARS-CoV-2 M^pro [4]; equivalent to Ki^app) was 4.96. The pKi (SARS-CoV-2 M^pro [4]; intrinsic inhibition constant) was 5.42, the “cytotoxicity on Vero cells (in words)” value (Vero cells) was “none of the tested concentrations exhibited cytotoxicity” and the “Inhibition of the virus-caused cytopathic effect (CPE)” value (shortened to “Inhibition … (CPE)”) (SARS-CoV-2 [5]; 10 µM, Vero cells) was “+”. For the same molecule, the “Inhibition … (CPE)” value (SARS-CoV-2 [5]; 25 µM, Vero cells) was “+”, the “Inhibition … (CPE)” value (SARS-CoV-2 [5]; 50 µM, Vero cells) was “+” and the “Inhibition … (CPE)” value (SARS-CoV-2 [5]; 75 µM, Vero cells) was “+”. The “Inhibition … (CPE)” value (SARS-CoV-2 [5]; 100 µM, Vero cells) was “+”, the “morphological changes of cells in the infection model” value (SARS-CoV-2 [5]; 100 µM, in half of experiments) was “morphological changes were observed” and the maximal non-toxic concentration (SARS-CoV-2 [5]; Vero cells, Figure S3) was 100 µM. For the same molecule, the “SARS-CoV-2-related CPE reduction (in words)” value (SARS-CoV-2 [5]; tested at 100, 75, 50, 25 and 10 µM, judged at non-toxic concentrations) was “inhibited the development of the CPE”, the pIC50 (SARS-CoV-2 [6]; Severe acute respiratory syndrome coronavirus 2, Vero, 48 h, read-out: IC50 of SARS-CoV-2 replication (RT-qPCR)) was 5.10 and the “logIC50 of SARS-CoV-2 replication (RT-qPCR)” value (SARS-CoV-2 [6]; log of concentration in µM, Figure S4) was 0,8968. The “improvement of the antiviral potency versus quercetin” value (SARS-CoV-2 [6]; ratio of antiviral IC50 values) was 24 fold.
